Laboratory results published in ChEMBL document CHEMBL1909046, “DrugMatrix in vitro pharmacology data”.

What was measured:
[1] = molecular target: Cannabinoid receptor 1 (Homo sapiens, UniProt P21554); type: cell membranes, Membrane; details: chem-1; also: in other assays of this panel Not Active means under 50% inhibition at 10 µM
[2] = molecular target: Carbonic anhydrase 2 (Homo sapiens, UniProt P00918); test: DRUGMATRIX: Carbonic Anhydrase II enzyme inhibition (substrate: 4-Nitrophenyl acetate (4-NPA)); type: tissue-based, Erythrocyte; details: erythrocyte; Not Active = under 50% inhibition at 10 µM
[3] = molecular target: 5-hydroxytryptamine receptor 6 (Homo sapiens, UniProt P50406); type: cell membranes, HeLa, Membrane; details: hela; also: in other assays of this panel Not Active means under 50% inhibition at 10 µM
[4] = molecular target: Epidermal growth factor receptor (Homo sapiens, UniProt P00533); test: DRUGMATRIX: Protein Tyrosine Kinase, EGF Receptor enzyme inhibition (substrate: Poly(Glu:Tyr)); type: cell-based, Insect cells; details: insect cells; Not Active = under 50% inhibition at 10 µM
[5] = DRUGMATRIX: GABAA, Chloride Channel, TBOB radioligand binding (ligand: [3H] TBOB); type: cell membranes, Rattus norvegicus, Wistar, Cerebral cortex, Membrane; details: Not Active = under 50% inhibition at 10 µM
[6] = molecular target: C-C chemokine receptor type 5 (Homo sapiens, UniProt P51681); type: cell membranes, Membrane; details: hek293; also: in other assays of this panel Not Active means under 50% inhibition at 10 µM
[7] = molecular target: Substance-P receptor (Homo sapiens, UniProt P25103); type: cell membranes, CHO, Membrane; details: cho; also: in other assays of this panel Not Active means under 50% inhibition at 10 µM
[8] = molecular target: T1, Glucocorticoid receptor (Homo sapiens, UniProt P04150); details: hela s3; also: in other assays of this panel Not Active means under 50% inhibition at 10 µM
T1 sequence (P04150 whole entry): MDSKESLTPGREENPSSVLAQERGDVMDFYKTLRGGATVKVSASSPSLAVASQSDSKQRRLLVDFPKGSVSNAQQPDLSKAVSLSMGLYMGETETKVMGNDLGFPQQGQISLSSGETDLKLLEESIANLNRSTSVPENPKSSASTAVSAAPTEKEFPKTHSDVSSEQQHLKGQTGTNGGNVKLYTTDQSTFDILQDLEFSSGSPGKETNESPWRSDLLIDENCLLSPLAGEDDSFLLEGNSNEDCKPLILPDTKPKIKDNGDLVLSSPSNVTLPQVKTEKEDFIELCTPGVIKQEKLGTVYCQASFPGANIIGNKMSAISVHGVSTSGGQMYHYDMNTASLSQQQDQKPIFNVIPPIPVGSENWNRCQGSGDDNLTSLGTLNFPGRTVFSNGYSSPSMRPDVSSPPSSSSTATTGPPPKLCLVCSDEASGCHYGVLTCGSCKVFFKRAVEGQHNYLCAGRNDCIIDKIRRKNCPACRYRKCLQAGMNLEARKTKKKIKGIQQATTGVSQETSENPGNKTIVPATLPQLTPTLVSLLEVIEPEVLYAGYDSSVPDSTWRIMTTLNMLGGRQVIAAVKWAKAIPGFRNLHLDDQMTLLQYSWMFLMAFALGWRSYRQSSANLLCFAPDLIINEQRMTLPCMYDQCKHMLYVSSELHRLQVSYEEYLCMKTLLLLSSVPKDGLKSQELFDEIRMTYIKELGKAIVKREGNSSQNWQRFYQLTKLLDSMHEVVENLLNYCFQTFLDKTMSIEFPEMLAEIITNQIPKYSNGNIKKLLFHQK

[9] = DRUGMATRIX: Imidazoline I2, Central radioligand binding (ligand: [3H] Idazoxan); type: cell membranes, Rattus norvegicus, Wistar, Cerebral cortex, Membrane; details: Not Active = under 50% inhibition at 10 µM
[10] = DRUGMATRIX: Sigma2 radioligand binding (ligand: [3H] Ifenprodil); type: cell membranes, Rattus norvegicus, Wistar, Brain, Membrane; details: Not Active = under 50% inhibition at 10 µM
[11] = molecular target: T2, Alpha-2A adrenergic receptor (Homo sapiens, UniProt P08913); type: cell membranes, Sf9, Membrane; details: sf9; also: in other assays of this panel Not Active means under 50% inhibition at 10 µM
T2 sequence (P08913 whole entry): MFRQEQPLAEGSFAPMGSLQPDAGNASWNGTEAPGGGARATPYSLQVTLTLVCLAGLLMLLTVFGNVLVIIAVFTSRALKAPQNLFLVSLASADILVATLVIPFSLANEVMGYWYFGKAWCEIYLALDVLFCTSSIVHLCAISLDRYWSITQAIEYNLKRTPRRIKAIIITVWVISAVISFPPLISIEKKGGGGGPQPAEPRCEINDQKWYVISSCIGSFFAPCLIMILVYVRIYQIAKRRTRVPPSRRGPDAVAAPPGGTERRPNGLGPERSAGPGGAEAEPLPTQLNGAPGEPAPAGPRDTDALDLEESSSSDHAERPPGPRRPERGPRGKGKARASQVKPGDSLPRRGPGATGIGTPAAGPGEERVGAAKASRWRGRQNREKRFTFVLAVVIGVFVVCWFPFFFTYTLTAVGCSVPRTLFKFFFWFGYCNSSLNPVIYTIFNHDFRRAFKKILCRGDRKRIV

[12] = DRUGMATRIX: Purinergic P2X radioligand binding (ligand: [3H] alpha, beta-Methylene-ATP); type: cell membranes, Oryctolagus cuniculus, New Zealand albino, Urinary bladder, Membrane; details: Not Active = under 50% inhibition at 10 µM
[13] = molecular target: Sodium-dependent dopamine transporter (Homo sapiens, UniProt Q01959); test: DRUGMATRIX: Dopamine Transporter radioligand binding (ligand: [125I] RTI-55); type: cell membranes, CHO-K1, Membrane; details: cho-k1; Not Active = under 50% inhibition at 10 µM
[14] = molecular target: T3, Adenosine receptor A1 (Homo sapiens, UniProt P30542); type: cell membranes, CHO, Membrane; details: cho
T3 sequence (P30542 whole entry): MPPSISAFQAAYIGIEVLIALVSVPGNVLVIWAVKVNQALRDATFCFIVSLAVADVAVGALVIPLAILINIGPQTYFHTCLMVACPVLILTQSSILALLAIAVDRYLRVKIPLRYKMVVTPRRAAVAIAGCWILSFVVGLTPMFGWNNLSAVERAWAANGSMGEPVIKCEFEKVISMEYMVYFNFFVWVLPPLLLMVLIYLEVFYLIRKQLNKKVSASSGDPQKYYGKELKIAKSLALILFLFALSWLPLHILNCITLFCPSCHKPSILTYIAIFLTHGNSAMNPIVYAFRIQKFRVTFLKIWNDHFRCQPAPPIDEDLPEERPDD

[15] = molecular target: T4, Cathepsin G (Homo sapiens, UniProt P08311); type: tissue-based; details: neutrophil
T4 sequence (P08311 whole entry): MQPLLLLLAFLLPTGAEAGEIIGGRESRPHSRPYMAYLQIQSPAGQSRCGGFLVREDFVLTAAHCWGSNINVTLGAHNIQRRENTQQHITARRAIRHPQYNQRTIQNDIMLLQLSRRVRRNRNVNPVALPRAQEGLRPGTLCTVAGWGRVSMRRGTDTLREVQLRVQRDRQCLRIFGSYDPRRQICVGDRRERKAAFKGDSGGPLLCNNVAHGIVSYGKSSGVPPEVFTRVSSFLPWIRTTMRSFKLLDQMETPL

Sodium-dependent dopamine transporter, sequence (Q01959 whole entry): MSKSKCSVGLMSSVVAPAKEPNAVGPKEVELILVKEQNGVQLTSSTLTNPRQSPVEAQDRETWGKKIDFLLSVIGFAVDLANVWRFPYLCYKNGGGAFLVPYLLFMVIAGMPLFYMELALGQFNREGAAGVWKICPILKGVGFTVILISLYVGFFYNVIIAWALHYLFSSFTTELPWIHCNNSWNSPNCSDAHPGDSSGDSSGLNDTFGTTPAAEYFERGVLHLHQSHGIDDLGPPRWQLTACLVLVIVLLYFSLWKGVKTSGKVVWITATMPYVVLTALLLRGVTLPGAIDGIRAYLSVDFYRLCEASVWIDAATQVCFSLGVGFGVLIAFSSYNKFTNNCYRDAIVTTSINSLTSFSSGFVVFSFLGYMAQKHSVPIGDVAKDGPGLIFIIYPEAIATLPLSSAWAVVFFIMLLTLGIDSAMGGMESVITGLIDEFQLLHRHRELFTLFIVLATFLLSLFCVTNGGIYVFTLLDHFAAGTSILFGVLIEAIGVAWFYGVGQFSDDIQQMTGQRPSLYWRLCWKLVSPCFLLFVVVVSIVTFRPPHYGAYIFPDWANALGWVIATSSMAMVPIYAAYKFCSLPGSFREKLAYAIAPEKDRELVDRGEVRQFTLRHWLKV
Cannabinoid receptor 1, sequence (P21554 whole entry): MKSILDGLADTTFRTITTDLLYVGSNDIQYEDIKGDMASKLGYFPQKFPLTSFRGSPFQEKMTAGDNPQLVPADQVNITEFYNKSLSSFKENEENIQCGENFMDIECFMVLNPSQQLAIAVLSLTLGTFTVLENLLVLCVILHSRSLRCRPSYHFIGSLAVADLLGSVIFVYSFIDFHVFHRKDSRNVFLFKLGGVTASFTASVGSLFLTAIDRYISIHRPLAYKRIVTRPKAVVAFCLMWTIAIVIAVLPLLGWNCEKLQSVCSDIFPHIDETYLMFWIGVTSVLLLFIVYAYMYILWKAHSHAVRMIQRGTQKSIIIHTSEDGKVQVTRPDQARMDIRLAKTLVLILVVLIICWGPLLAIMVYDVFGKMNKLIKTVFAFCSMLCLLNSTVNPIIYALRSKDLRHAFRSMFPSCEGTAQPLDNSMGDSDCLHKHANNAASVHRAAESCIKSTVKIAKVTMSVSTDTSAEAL
5-hydroxytryptamine receptor 6, sequence (P50406 whole entry): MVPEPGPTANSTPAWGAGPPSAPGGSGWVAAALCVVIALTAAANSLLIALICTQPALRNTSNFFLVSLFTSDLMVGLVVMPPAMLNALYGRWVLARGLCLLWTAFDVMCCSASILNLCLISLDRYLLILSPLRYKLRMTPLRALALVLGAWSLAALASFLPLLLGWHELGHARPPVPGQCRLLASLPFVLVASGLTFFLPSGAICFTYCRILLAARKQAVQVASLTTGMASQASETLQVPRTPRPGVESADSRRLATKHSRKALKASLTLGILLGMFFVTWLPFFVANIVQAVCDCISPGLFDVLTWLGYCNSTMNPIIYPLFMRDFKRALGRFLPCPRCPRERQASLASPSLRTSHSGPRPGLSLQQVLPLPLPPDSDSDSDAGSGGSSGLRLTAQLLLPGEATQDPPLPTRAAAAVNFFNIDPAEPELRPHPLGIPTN
Epidermal growth factor receptor, sequence (P00533 whole entry): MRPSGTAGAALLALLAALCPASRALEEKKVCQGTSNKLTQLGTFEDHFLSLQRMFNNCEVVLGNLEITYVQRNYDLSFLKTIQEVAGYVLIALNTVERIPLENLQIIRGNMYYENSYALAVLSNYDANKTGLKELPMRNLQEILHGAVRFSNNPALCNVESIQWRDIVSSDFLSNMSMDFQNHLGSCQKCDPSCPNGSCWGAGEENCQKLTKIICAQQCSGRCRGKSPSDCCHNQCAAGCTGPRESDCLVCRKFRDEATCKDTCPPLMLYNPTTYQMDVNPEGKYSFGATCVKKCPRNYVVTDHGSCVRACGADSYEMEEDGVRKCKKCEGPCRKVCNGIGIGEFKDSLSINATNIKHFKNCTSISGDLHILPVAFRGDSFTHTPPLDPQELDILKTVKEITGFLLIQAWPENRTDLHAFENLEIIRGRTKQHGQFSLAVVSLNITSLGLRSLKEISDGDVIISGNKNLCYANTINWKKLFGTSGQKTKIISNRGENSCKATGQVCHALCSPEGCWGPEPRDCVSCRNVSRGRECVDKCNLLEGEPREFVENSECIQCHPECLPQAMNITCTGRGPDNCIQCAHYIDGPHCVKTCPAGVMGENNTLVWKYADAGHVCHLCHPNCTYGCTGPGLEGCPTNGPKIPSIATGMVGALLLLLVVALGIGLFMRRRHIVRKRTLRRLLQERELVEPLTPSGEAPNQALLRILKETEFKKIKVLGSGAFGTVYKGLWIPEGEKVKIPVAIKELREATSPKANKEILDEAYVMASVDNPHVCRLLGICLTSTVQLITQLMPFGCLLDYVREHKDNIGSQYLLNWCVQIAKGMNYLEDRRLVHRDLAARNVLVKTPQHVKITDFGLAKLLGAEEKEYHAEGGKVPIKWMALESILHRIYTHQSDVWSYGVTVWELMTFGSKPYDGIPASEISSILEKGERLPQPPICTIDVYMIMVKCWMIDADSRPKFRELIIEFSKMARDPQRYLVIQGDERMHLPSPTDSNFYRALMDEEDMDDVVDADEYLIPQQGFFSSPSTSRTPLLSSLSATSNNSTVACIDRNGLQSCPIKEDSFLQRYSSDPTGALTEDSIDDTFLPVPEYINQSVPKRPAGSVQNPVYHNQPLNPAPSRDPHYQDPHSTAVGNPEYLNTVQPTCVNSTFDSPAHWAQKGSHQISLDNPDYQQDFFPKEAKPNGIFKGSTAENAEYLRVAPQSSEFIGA
C-C chemokine receptor type 5, sequence (P51681 whole entry): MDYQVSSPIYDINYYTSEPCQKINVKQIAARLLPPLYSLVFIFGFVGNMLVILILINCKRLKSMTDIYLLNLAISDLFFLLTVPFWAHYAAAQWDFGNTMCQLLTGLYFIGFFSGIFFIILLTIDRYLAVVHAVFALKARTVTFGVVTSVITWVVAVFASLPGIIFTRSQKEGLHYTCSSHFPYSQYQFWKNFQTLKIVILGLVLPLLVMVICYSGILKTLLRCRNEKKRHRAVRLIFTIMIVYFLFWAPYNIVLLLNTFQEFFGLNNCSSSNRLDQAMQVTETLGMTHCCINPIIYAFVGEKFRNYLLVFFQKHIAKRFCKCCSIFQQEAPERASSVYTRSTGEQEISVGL
Substance-P receptor, sequence (P25103 whole entry): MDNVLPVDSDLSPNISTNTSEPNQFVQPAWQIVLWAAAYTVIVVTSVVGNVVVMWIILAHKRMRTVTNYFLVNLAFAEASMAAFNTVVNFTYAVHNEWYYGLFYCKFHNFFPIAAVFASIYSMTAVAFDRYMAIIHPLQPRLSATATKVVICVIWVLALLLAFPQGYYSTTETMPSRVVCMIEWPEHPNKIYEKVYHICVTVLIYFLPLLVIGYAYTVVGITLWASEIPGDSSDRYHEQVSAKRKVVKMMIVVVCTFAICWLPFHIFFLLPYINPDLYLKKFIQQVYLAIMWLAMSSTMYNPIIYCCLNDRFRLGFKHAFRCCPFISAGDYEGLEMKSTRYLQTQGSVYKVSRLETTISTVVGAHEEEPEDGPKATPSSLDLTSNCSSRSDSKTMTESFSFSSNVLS

NS(=O)(=O)c1cc2c(cc1Cl)NCNS2(=O)=O [HYDROCHLOROTHIAZIDE]
Not Active: IC50 [1] | IC50 [2] | IC50 [3] | IC50 [4] | IC50 [5] | Ki [5] | IC50 [6] | IC50 [7] | IC50 [8] | IC50 [9] | Ki [9] | IC50 [10] | Ki [10] | IC50 [11] | IC50 [12] | Ki [12] | IC50 [13] | IC50 [14] | IC50 [15]

O=P1(NCCCl)OCCCN1CCCl (configuration not stated) [IFOSFAMIDE]
Not Active: IC50 [1] | IC50 [2] | IC50 [3] | IC50 [4] | IC50 [5] | Ki [5] | IC50 [6] | IC50 [7] | IC50 [8] | IC50 [9] | Ki [9] | IC50 [10] | Ki [10] | IC50 [11] | IC50 [12] | Ki [12] | IC50 [13] | IC50 [14] | IC50 [15]

O=C1CN=C(c2ccccc2)c2cc([N+](=O)[O-])ccc2N1 [NITRAZEPAM]
Not Active: IC50 [1] | IC50 [2] | IC50 [3] | IC50 [4] | IC50 [5] | Ki [5] | IC50 [6] | IC50 [7] | IC50 [8] | IC50 [9] | Ki [9] | IC50 [10] | Ki [10] | IC50 [11] | IC50 [12] | Ki [12] | IC50 [13] | IC50 [14] | IC50 [15]

CN(C)[C@@H]1C(O)=C(C(N)=O)C(=O)[C@@]2(O)C(O)=C3C(=O)c4c(O)cccc4[C@@](C)(O)[C@H]3[C@H](O)[C@@H]12 [OXYTETRACYCLINE]
Not Active: IC50 [1] | IC50 [2] | IC50 [3] | IC50 [4] | IC50 [5] | Ki [5] | IC50 [6] | IC50 [7] | IC50 [8] | IC50 [9] | Ki [9] | IC50 [10] | Ki [10] | IC50 [11] | IC50 [12] | Ki [12] | IC50 [13] | IC50 [14] | IC50 [15]

CC(C)(S)[C@@H](N)C(=O)O [PENICILLAMINE]
Not Active: IC50 [1] | IC50 [2] | IC50 [3] | IC50 [4] | IC50 [5] | Ki [5] | IC50 [6] | IC50 [7] | IC50 [8] | IC50 [9] | Ki [9] | IC50 [10] | Ki [10] | IC50 [11] | IC50 [12] | Ki [12] | IC50 [13] | IC50 [14] | IC50 [15]

CC(=O)CCCCn1c(=O)c2c(ncn2C)n(C)c1=O [PENTOXIFYLLINE]
Not Active: IC50 [1] | IC50 [2] | IC50 [3] | IC50 [4] | IC50 [5] | Ki [5] | IC50 [6] | IC50 [7] | IC50 [8] | IC50 [9] | Ki [9] | IC50 [10] | Ki [10] | IC50 [11] | IC50 [12] | Ki [12] | IC50 [13] | IC50 [14] | IC50 [15]

O=C1NC(=O)C(c2ccccc2)(c2ccccc2)N1 [PHENYTOIN]
Not Active: IC50 [1] | IC50 [2] | IC50 [3] | IC50 [4] | IC50 [5] | Ki [5] | IC50 [6] | IC50 [7] | IC50 [8] | IC50 [9] | Ki [9] | IC50 [10] | Ki [10] | IC50 [11] | IC50 [12] | Ki [12] | IC50 [13] | IC50 [14] | IC50 [15]

CNC(=O)Oc1ccc2c(c1)[C@]1(C)CCN(C)[C@@H]1N2C [PHYSOSTIGMINE]
Not Active: IC50 [1] | IC50 [2] | IC50 [3] | IC50 [4] | IC50 [5] | Ki [5] | IC50 [6] | IC50 [7] | IC50 [8] | IC50 [9] | Ki [9] | IC50 [10] | Ki [10] | IC50 [11] | IC50 [12] | Ki [12] | IC50 [13] | IC50 [14] | IC50 [15]
